Measured values from the kinase profiling compilation of Christmann-Franck et al. (2016).

Columns and labels:
Assay in all cases: KINOMEscan competition binding
Settings in all cases: compound 10.0 µM
[1] = test system: ABL1 (human), P00519 [E255K]
[2] = biological target: CDK4 CCND3 (human) (UniProt P11802+P30281)
[3] = biological target: CDKL1 (human) (UniProt Q00532)
[4] = biological target: CSNK1A1 (human) (UniProt P48729)
[5] = biological target: DSTYK (human) (UniProt Q6XUX3)
[6] = biological target: EPHB6 (human) (UniProt O15197)
[7] = biological target: ERBB3 (human) (UniProt P21860)
[8] = biological target: ERN1 (human) (UniProt O75460)
[9] = biological target: GRK1 (human) (UniProt Q15835)
[10] = biological target: GRK4 (human) (UniProt P32298)
[11] = biological target: HIPK2 (human) (UniProt Q9H2X6)
[12] = biological target: HIPK3 (human) (UniProt Q9H422)
[13] = biological target: HIPK4 (human) (UniProt Q8NE63)
[14] = biological target: HUNK (human) (UniProt P57058)
[15] = biological target: ICK (human) (UniProt Q9UPZ9)
[16] = biological target: IRAK1 (human) (UniProt P51617)
[17] = biological target: LRRK2 (human) (UniProt Q5S007)
[18] = biological target: MAP3K1 (human) (UniProt Q13233)
[19] = biological target: MAP3K13 (human) (UniProt O43283)
[20] = biological target: MAP3K2 (human) (UniProt Q9Y2U5)
[21] = biological target: MATK (human) (UniProt P42679)
[22] = biological target: MET (human) (UniProt P08581)
[23] = biological target: NEK11 (human) (UniProt Q8NG66)
[24] = biological target: NEK3 (human) (UniProt P51956)
[25] = biological target: PI4KB (human) (UniProt Q9UBF8)
[26] = biological target: PIK3C2G (human) (UniProt O75747)
[27] = biological target: PIK3CA (human) (UniProt P42336)
[28] = test system: PIK3CA (human), P42336 [E545A]
[29] = test system: PIK3CA (human), P42336 [E545K]
[30] = biological target: PIK3CG (human) (UniProt P48736)
[31] = biological target: PIP5K1C (human) (UniProt O60331)
[32] = biological target: ROCK1 (human) (UniProt Q13464)
[33] = biological target: SIK3 (human) (UniProt Q9Y2K2)
[34] = biological target: SNRK (human) (UniProt Q9NRH2)
[35] = biological target: STK39 (human) (UniProt Q9UEW8)
[36] = biological target: TAOK2 (human) (UniProt Q9UL54)
[37] = biological target: TIE1 (human) (UniProt P35590)
[38] = biological target: TRPM6 (human) (UniProt Q9BX84)
[39] = biological target: VRK2 (human) (UniProt Q86Y07)

Chain of GRK4 (human) (P32298 whole entry, looked up): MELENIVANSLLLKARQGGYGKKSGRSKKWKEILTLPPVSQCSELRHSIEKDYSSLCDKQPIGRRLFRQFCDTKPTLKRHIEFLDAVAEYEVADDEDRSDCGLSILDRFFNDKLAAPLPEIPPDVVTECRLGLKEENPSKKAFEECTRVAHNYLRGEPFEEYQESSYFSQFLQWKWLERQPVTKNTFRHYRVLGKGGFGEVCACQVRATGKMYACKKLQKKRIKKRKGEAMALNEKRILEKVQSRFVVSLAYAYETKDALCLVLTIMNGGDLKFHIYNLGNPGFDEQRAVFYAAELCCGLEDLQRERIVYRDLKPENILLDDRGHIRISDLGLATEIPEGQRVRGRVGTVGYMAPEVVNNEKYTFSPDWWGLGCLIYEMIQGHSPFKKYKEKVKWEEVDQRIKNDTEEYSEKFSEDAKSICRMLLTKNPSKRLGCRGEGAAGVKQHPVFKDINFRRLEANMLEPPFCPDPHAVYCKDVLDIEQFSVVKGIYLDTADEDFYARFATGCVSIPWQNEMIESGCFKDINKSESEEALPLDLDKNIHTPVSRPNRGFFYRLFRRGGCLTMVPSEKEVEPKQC
Chain of PIK3CA (human) (P42336 whole entry, looked up): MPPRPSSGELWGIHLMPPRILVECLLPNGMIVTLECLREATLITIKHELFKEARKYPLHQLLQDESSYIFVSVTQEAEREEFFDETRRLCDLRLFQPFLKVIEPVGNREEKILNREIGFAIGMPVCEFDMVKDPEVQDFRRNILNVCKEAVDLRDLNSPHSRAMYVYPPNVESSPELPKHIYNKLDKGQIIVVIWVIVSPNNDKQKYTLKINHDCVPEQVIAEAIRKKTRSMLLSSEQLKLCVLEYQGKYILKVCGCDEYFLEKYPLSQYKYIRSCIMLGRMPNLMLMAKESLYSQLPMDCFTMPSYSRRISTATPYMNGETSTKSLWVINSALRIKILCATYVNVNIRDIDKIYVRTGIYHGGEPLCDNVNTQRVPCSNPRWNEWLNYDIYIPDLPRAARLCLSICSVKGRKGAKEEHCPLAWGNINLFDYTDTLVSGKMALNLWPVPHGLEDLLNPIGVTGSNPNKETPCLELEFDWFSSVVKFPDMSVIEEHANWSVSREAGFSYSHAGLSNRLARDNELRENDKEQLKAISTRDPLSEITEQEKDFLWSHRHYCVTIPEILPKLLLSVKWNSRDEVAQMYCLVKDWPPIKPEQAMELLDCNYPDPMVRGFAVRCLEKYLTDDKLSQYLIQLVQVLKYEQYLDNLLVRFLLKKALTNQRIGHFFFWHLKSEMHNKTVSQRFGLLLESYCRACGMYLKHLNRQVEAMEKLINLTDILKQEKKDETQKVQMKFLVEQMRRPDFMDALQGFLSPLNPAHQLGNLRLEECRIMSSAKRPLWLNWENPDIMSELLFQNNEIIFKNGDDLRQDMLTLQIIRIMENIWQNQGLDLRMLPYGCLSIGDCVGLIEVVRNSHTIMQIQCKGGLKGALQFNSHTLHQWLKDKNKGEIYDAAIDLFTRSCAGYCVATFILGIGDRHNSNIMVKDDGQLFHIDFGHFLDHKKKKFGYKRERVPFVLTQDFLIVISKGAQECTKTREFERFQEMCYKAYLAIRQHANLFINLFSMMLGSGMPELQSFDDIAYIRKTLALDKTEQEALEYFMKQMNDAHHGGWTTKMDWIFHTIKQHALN
Chain of PIK3CA (human), P42336 [E545K] (P42336 whole entry E545K, looked up): as the sequence (P42336 whole entry, looked up) above, with E545K counted along it
Chain of TAOK2 (human) (Q9UL54 whole entry, looked up): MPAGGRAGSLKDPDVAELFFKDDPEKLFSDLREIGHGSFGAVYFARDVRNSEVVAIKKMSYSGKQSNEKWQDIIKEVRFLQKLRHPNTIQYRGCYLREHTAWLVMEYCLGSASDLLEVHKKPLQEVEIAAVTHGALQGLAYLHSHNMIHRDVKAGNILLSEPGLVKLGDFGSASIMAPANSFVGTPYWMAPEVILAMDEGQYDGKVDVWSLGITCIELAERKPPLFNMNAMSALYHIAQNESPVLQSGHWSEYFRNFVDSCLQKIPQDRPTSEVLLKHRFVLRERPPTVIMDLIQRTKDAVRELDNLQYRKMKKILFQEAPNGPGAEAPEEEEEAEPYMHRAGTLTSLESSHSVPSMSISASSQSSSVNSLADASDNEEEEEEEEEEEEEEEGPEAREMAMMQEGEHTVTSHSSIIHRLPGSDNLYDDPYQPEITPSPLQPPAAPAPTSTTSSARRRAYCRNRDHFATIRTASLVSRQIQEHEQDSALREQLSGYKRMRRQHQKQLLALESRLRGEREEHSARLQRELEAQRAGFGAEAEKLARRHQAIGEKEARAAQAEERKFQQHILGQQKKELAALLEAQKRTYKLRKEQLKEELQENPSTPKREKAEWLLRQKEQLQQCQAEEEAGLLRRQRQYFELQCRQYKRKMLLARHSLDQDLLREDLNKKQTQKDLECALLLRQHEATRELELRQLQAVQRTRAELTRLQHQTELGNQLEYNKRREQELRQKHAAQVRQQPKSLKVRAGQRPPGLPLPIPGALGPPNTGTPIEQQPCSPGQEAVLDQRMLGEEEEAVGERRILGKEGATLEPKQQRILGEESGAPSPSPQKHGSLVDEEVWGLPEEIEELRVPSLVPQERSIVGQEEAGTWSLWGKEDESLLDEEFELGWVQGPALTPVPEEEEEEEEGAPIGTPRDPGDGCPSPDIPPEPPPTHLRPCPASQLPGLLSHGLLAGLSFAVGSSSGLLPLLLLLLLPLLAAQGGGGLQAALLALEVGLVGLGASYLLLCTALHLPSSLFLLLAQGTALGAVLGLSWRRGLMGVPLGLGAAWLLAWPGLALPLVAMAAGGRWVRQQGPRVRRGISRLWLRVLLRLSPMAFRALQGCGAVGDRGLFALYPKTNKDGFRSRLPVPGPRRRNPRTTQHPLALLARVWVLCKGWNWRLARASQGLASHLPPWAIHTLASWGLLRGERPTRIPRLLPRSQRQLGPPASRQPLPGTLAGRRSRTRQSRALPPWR
Chain of ICK (human) (Q9UPZ9 whole entry, looked up): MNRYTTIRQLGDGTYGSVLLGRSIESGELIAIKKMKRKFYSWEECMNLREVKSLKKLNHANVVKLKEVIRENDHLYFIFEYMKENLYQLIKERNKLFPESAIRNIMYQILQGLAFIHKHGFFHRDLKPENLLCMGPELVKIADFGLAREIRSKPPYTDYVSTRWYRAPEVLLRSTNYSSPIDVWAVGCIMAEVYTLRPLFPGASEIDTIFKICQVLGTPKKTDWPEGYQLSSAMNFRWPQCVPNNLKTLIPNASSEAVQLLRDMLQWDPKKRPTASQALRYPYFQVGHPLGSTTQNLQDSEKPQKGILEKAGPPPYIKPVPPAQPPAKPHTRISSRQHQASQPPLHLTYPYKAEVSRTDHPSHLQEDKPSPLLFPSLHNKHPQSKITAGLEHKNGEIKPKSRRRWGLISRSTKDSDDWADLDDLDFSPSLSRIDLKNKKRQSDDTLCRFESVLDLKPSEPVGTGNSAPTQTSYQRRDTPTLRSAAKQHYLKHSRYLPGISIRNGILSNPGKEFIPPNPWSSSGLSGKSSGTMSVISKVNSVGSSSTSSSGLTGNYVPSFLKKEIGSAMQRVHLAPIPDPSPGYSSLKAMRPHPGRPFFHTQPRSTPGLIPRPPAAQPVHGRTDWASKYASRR
Chain of PIK3CA (human), P42336 [E545A] (P42336 whole entry E545A, looked up): as the sequence (P42336 whole entry, looked up) above, with E545A counted along it
Chain of PIP5K1C (human) (O60331 whole entry, looked up): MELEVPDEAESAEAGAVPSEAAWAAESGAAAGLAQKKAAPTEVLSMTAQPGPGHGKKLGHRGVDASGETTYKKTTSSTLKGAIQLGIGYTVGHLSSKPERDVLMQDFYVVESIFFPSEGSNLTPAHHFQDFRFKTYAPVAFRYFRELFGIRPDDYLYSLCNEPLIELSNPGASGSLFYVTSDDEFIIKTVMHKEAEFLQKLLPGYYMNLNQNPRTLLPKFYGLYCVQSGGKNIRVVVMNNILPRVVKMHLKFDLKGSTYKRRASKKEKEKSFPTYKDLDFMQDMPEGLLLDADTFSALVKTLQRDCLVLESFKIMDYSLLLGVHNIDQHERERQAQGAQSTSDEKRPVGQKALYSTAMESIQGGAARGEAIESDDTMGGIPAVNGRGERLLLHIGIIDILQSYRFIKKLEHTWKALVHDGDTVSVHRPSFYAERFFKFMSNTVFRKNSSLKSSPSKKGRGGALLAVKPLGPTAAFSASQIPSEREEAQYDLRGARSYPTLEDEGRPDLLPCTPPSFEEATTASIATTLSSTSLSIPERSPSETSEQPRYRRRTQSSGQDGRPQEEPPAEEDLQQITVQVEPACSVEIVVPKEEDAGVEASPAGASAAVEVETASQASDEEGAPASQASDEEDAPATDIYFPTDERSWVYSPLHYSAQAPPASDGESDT
Chain of SNRK (human) (Q9NRH2 whole entry, looked up): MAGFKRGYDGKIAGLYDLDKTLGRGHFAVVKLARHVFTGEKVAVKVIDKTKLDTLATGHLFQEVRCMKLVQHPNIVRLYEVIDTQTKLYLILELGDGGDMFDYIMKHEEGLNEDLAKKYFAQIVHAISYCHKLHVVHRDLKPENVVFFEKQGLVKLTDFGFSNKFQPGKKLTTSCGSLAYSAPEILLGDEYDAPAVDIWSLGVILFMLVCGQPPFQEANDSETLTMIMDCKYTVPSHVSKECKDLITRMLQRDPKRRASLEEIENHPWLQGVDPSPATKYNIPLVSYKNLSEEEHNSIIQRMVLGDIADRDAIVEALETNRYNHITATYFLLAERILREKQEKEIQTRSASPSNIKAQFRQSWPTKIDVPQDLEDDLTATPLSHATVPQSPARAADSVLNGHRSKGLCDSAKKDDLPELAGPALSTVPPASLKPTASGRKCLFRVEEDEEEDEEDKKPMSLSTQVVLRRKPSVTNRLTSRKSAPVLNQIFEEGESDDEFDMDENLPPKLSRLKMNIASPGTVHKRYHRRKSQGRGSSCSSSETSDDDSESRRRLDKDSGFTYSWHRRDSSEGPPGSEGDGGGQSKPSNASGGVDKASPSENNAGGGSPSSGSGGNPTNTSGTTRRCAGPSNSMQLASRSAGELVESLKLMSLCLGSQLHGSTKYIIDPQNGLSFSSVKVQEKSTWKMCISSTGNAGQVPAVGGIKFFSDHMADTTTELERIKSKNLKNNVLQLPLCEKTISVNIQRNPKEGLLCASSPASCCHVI

`N#Cc1c(NC(=O)c2cccc3ccccc23)sc2c1CCCC2` was tested, and the kinase still bound, per cent of control [1] was 100%, the kinase still bound, per cent of control [2] was 84% and the kinase still bound, per cent of control [3] was 73%. For the same compound, the kinase still bound, per cent of control [4] was 100%, the kinase still bound, per cent of control [5] was 100% and the kinase still bound, per cent of control [6] was 85%. The kinase still bound, per cent of control [7] was 100%, the kinase still bound, per cent of control [8] was 90% and the kinase still bound, per cent of control [9] was 100%. The kinase still bound, per cent of control [10] was 100%, the kinase still bound, per cent of control [11] was 100% and the kinase still bound, per cent of control [12] was 43%. For the same compound, the kinase still bound, per cent of control [13] was 100%, the kinase still bound, per cent of control [14] was 95% and the kinase still bound, per cent of control [15] was 81%. It also gave a kinase still bound, per cent of control [16] of 100%, a kinase still bound, per cent of control [17] of 94% and a kinase still bound, per cent of control [18] of 59%. It also gave a kinase still bound, per cent of control [19] of 83%, a kinase still bound, per cent of control [20] of 100% and a kinase still bound, per cent of control [21] of 100%. It also gave a kinase still bound, per cent of control [22] of 66%, a kinase still bound, per cent of control [23] of 100% and a kinase still bound, per cent of control [24] of 100%. For the same compound, the kinase still bound, per cent of control [25] was 100%, the kinase still bound, per cent of control [26] was 87% and the kinase still bound, per cent of control [27] was 99%. The kinase still bound, per cent of control [28] was 80%, the kinase still bound, per cent of control [29] was 88% and the kinase still bound, per cent of control [30] was 99%. It also gave a kinase still bound, per cent of control [31] of 100%, a kinase still bound, per cent of control [32] of 100% and a kinase still bound, per cent of control [33] of 65%. For the same compound, the kinase still bound, per cent of control [34] was 100%, the kinase still bound, per cent of control [35] was 100% and the kinase still bound, per cent of control [36] was 100%. The kinase still bound, per cent of control [37] was 95%, the kinase still bound, per cent of control [38] was 100% and the kinase still bound, per cent of control [39] was 100%.
Compound `O=C(NOC[C@H](O)CO)c1ccc(F)c(F)c1Nc1ccc(I)cc1F` has a kinase still bound, per cent of control [1] of 100%, a kinase still bound, per cent of control [2] of 84% and a kinase still bound, per cent of control [3] of 78%. For the same compound, the kinase still bound, per cent of control [4] was 100%, the kinase still bound, per cent of control [5] was 100% and the kinase still bound, per cent of control [6] was 87%. For the same compound, the kinase still bound, per cent of control [7] was 100%, the kinase still bound, per cent of control [8] was 97% and the kinase still bound, per cent of control [9] was 100%. The kinase still bound, per cent of control [10] was 100%, the kinase still bound, per cent of control [12] was 49% and the kinase still bound, per cent of control [13] was 100%. It also gave a kinase still bound, per cent of control [14] of 100%, a kinase still bound, per cent of control [15] of 84% and a kinase still bound, per cent of control [16] of 100%. The kinase still bound, per cent of control [17] was 86%, the kinase still bound, per cent of control [18] was 54% and the kinase still bound, per cent of control [19] was 86%. For the same compound, the kinase still bound, per cent of control [20] was 100%, the kinase still bound, per cent of control [21] was 100% and the kinase still bound, per cent of control [23] was 91%. The kinase still bound, per cent of control [24] was 100%, the kinase still bound, per cent of control [25] was 100% and the kinase still bound, per cent of control [26] was 48%. For the same compound, the kinase still bound, per cent of control [27] was 56%, the kinase still bound, per cent of control [28] was 45% and the kinase still bound, per cent of control [29] was 53%. It also gave a kinase still bound, per cent of control [30] of 88%, a kinase still bound, per cent of control [31] of 100% and a kinase still bound, per cent of control [32] of 100%. It also gave a kinase still bound, per cent of control [33] of 52%, a kinase still bound, per cent of control [34] of 100% and a kinase still bound, per cent of control [35] of 96%. It also gave a kinase still bound, per cent of control [36] of 100%, a kinase still bound, per cent of control [37] of 54% and a kinase still bound, per cent of control [38] of 100%. For the same compound, the kinase still bound, per cent of control [39] was 100%.
